Consider two compounds from patent US8722649B2, “Alpha-chloro and alpha-bromo phosphonate analogs of lysophosphatidic acid and methods of making and using thereof” (University of Utah Research Foundation, priority 2007, dated 2014).

For assay [1], the target named is T1, PPARγ (Homo sapiens, UniProt P37231).
T1 construct: expressed in transfected cells; host or cells: CV-1 cells, transient (LipofectAMINE 2000)
T1 sequence (P37231 1-505): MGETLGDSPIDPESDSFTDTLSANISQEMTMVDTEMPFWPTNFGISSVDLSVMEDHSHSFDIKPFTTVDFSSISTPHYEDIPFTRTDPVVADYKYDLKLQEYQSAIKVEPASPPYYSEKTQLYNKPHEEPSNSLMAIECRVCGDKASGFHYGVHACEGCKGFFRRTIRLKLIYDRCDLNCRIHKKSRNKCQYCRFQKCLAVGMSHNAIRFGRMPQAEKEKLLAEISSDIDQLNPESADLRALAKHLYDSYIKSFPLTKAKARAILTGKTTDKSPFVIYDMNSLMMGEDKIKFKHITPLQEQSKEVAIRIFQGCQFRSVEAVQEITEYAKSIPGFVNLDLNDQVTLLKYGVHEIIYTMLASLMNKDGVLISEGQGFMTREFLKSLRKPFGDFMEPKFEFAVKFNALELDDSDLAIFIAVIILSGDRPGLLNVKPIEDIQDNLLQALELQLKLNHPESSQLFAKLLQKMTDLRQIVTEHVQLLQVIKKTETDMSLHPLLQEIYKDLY
The assay can be described thus: PPARγ activation assay (PPRE-Acox-Rluc reporter in CV-1 cells). The assay is classed as cell-based. To be noted: 10 μM test analogue, 20 h. The protocol:
PPARγ activation assay. PPARγ activation was performed using CV-1 cells transfected with an acyl-coenzyme A oxidase-luciferase (PPRE-Acox-Rluc) reporter gene construct as previously reported. Briefly, CV-1 cells were plated in 96-well plates at a density of 1×10^4 cells per well in Dulbecco's modified Eagle's medium supplemented with 10% fetal bovine serum. The next day, the cells were transiently transfected with 125 ng of pGL3-PPRE-Acox-Rluc, 62.5 ng of pcDNA3.1 PPARγ, and 12.5 ng of pSV-β-galactosidase (Promega) using LipofectAMINE 2000 (Invitrogen). Twenty-four hours after transfection, cells were treated with OptiMEM (Invitrogen) containing 10 μM Rosiglitazone or 10 μM of the test analogue dissolved in DMSO for 20 h. Luciferase and β-galactosidase activities were measured with Steady-Glo® Luciferase Assay System (Promega) and the Galacto-Light Plus™ system (Applied Biosystems), respectively. Samples were run in quadruplicate and the mean ±standard errors were calculated. Data are representative of at least two independent transfections.

Assay [2] addresses T2, human LPA1 (Homo sapiens, UniProt Q92633).
T2 construct: expressed in transfected cells
The assay can be described thus: Ca2+ mobilization assay, LPA1. The assay is classed as cell-based. The protocol:
Receptor activation using Ca^2+ mobilization assay for diastereomers of 1 (also represented as 19b). The rat hepatoma (RH7777) cell lines individually expressing either LPA1, LPA2, LPA3 or LPA5 receptors and Chinese hamster ovary (CHO) cell line were analyzed to examine agonism and antagonism. […] CHO cells stably expressing either vector or LPA4 were kindly gifted from Dr. Shimizu (University of Tokyo, Tokyo, Japan).
Stable transformants of LPA1/2/3 receptors. RH7777 cells stably expressing each receptor were plated onto poly-L-lysine (PLL) (0.1 mg/mL)-coated black-wall clear-bottom 96-well plates (Corning Incorporated Life Sciences, Acton, Mass.) at a density of 5×10^4 cells/well and cultured overnight. The following day, the culture medium was replaced with modified Krebs buffer (120 mM NaCl, 5 mM KCl, 0.62 mM MgSO4, 1.8 mM CaCl2, 10 mM HEPES, 6 mM glucose, pH 7.4), and the cells were serum starved for 6 h. Subsequently, cells were loaded with Fura-2 AM (Invitrogen, Carlsbad, Calif.) for 35 min in modified Krebs buffer containing 2% (v/v) pluronic acid.
After incubating the cells with Fura-2 AM, the cells were rinsed with Krebs buffer and changes in the intracellular Ca^2+ concentration were monitored by determining the ratio of emitted light intensities at 520 nm in response to excitation at 340 and 380 nm using FLEXstation II (Molecular Devices, Sunnyvale, Calif.). Each well was monitored for 80-120 sec. For testing agonist activity of the compounds, the test compounds were added automatically after 15 sec of baseline measurement. To determine antagonist properties, varying concentrations of the compounds were mixed with a constant concentration of LPA and responses were monitored. Each test was performed in quadruplicate. EC50, IC50, and Ki values were calculated by fitting a sigmoid function to data points with the nonlinear curve-fitting feature of KaleidaGraph (Synergy Software, Essex Junction, Vt.).
Receptor activation using Ca^2+ mobilization assay. The assay for mobilization of intracellular Ca^2+ was performed as described. Briefly, rat hepatoma RH7777 cells stably expressing human LPA1, LPA2, or LPA3, and CHO cells stably expressing LPA4, were loaded with Fura-2 AM (Molecular Probes). Using a FLEXStation (Molecular Devices, Sunnyvale, Calif.), changes in intracellular Ca^2+ concentration were monitored. Ligand-induced changes in fluorescence were monitored for 80-120 seconds. Ca^2+ transients were quantified automatically by calculating the difference between maximum and baseline ratio values for each sample. To determine antagonist properties, different concentrations of each analogue were mixed with either palmitoyl (16:0) or oleoyl (18:1) LPA (200 nM for LPA1 and LPA3, 10 nM for LPA2, and 400 nM for LPA4) (Avanti Polar Lipids, Inc., […], Ala.) and responses were recorded. Each test was performed in quadruplicate. EC50, IC50, and Ki values were calculated as described. The ligand properties of the compounds were evaluated using Ca^2+ mobilization assay for assessing the activation/inhibition of LPA1, LPA2, and LPA3 expressed in RH7777 cells and LPA4 expressed in CHO cells. Table l illustrates calcium responses elicited through the activation of human LPA1, LPA2, LPA3 and LPA4 receptors. These cell lines have been used extensively for the characterization of LPA GPCR ligands because RH7777 cells are intrinsically unresponsive to LPA and CHO cells show minimal endogenous responses to LPA unless transfected with LPA4.

The target of assay [3] is T3, recombinant ATX-HA (Homo sapiens, UniProt Q13822).
T3 construct: HA
The assay can be described thus: Autotaxin assay (FS-3 hydrolysis). The assay is classed as biochemical. To be noted: 10.0 μM; FS-3 substrate; preliminary single-dose screen. The protocol:
Autotaxin Assay. This assay utilizes FS-3 (Echelon Biosciences, Inc. Salt Lake City, Utah) as substrate and recombinant ATX-HA. For analysis, 50 μl of ATX-HA (0.25 μg) in assay buffer (Tris 50 mM, NaCl 140 mM, KCl 5mM, CaCl2 1 mM, MgCl2 1 mM, pH 8.0) was mixed with 25 μl of FS-3 (1 μM final concentration in assay buffer) and 25 μl of test compound dissolved in assay buffer containing 1:1.5 bovine serum albumin in 96-well plate. FS-3 fluorescence was monitored using FLEXstation fluorescence plate reader at a time zero and after 2 hours of incubation at 37° C. at excitation and emission wavelengths of 485 nm and 538 nm, respectively. Data was normalized to the corresponding vehicle control and the mean±standard deviation of triplicate wells were expressed as percent ATX inhibition. IC50, and Ki values were calculated as described.

In assay [4] the test system is MDA-MB-231 cells. The assay can be described thus: Orthotopic breast cancer xenograft. In kind it is in vivo, nude mice. The procedure: Orthotopic Human Breast Cancer Models. 4-week-old female athymic nude mice (Charles River Laboratories) were anesthetized by intraperitoneal injection of ketamine (80 mg/kg) and xylazine (10 mg/kg),according to the protocol approved by the University of Utah Institutional Animal Care and Use Committee (IACUC). Then the thoracic skin was sterilized with iodine and alcohol swabs.
MDA-MB-231 were trypsinized and resuspended in 2.5% CMHA-S and 3% gelatin-DTPH (v:v=1:1). Then, one volume of 4% PEGDA solution was added to four volumes of the cell suspension, and the resulting suspension was mixed gently by vortexing. The final cell concentration was 5×10^7 cells/ml. When the cell suspension was becoming viscous (ca. 3-5 min at 20° C.), 200 uL of gel was injected subcutaneously into the fourth mammary fat pad of each mouse, using a total of six mice per group.
The assessment of chemotherapy on breast cancer. The mice were randomly divided into 4 groups, including control (physiological saline), paclitaxel, LPA antagonist (19b), and paclitaxel followed by 19b. Six mice for each cell line were necessary to get statistically significant results according to literature. The control group received physiological saline i.p. injection twice per week starting at two weeks after the cell transplantation and ending at two weeks after the treatment. The treatment groups received i.p. administration of paclitaxel (10 mg/kg/day) or 19b (10 mg/kg/day) twice per week with the same period of control group. One additional group included 2 dose of paclitaxel followed by 2 dose of 19b with the same period of control group. The treatment was received […] twice per week for 2 weeks total.
The body weight and tumor size were measured twice per week, and general clinical status of the animals was also assessed every day. Perpendicular tumor diameters were measured using a vernier scale caliper and tumor volume estimated using the formula for ellipsoid: […] (mm^3)=[width(mm)^2×length(mm)]/2. Data are expressed as median tumor areas with interquartile ranges.
Animals were euthanized at 4 weeks postinjection or once any signs of broken skin caused by the extension of tumor are found. Tumors were excised with surrounding tissues for histological evaluation. Analysis of variance was used to analyze the statistical difference on tumor growth between different groups. The results are in FIG. 8, where it is shown that the volume of the tumors is the lowest when mice were treated with paclitaxel followed by the administration of 19b.
Xenograft establishment and chemotherapy. […] The tumor sizes were measured and calculated by formula: tumor size (mm^3)=[width (mm)]^2×[length (mm)]/2. […]

The structures appear in SMILES notation.

T2 sequence (Q92633 whole entry): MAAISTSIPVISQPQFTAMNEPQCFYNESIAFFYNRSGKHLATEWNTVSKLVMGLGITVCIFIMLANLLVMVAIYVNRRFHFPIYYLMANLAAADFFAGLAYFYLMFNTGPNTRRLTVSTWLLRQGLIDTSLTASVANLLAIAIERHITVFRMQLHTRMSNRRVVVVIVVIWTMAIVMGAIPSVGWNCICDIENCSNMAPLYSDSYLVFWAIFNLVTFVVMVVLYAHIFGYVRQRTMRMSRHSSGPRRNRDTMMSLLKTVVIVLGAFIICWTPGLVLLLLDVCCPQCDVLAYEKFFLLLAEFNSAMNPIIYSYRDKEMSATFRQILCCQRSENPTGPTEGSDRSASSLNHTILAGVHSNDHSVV

As for `CCCCCCCC/C=C\CCCCCCCC(=O)OC[C@@H](O)COP(=O)(O)O` [LPA (18:1), reference compound], in assay [1], the “PPARγ (PPRE luciferase reporter gene assay)” value is reported as “Ago-”. The EC50 (usually the concentration at which the effect is half-maximal) in assay [2] (RH7777 cells stably expressing LPA1, agonist mode) was 0.1 ± 0.0132 µM. Further, the IC50 (as a rule, the concentration needed to halve the response being measured) in assay [2] (antagonist mode vs 200 nM LPA, PA = partial antagonist, read-out: LPA1 IC50) is more than 30 µM. The “Inhibition (%) of autotaxin (ATX) phosphodiesterase activity” value in assay [3] is given as 88.4 ± 1.3%.

Take `CC(=O)O[C@H]1C(=O)[C@@]2(C)[C@H]([C@H](OC(=O)c3ccccc3)[C@]3(O)C[C@H](OC(=O)[C@H](O)[C@@H](NC(=O)c4ccccc4)c4ccccc4)C(C)=C1C3(C)C)[C@]1(OC(C)=O)CO[C@@H]1C[C@@H]2O` [Taxol, reference compound]: the “tumor blood vessel density / angiogenesis (CD31), single agent” value in assay [4] (10 mg/kg i.p.) is “statistically different from the control”. In assay [4] (10 mg/kg i.p. twice per week for two weeks), the “tumor size, single agent” value is on record as “reduction of tumor size”.
